Test [1] has as its target T1, farnésyltransférase humaine (Homo sapiens, UniProt P49354+P49356).
T1 construct: farnésyltransférase humaine purifiée à partir de cultures de cellules THP1; endogenous in cells; host or cells: THP1 cell cultures (enzyme purified from them)
As to the kind of experiment: Farnesyltransferase inhibition: transfer of (3H) farnesyl from (3H) FPP to p21 H-Ras. The class given is biochemical. As to conditions: read-out: Activité inhibitrice IC50. As to the method: L'activité farnésyltransférase est déterminée par la quantité de (^3H) farnésyl transférée à partir du (^3H) farnésylpyrophosphate [(^3H) FPP) sur la protéine p21 H-Ras. Le mélange réactionnel standard est composé, pour un volume final de 60 µl, de Tris-HCl 50mM, MgCl2 5mM, dithiotréitol 5 mM, octyl-β-D-glucopyranoside 0,2 %, p21 H-ras 200 picomoles, (^3H) FPP (à 61000 dpm/picomole) 4,5 picomoles.
La réaction est initiée par addition d'environ 5 ng de farnésyltransférase humaine purifiée à partir de cultures de cellules THP1. Après incubation pendant 20 minutes à 37°C en plaque de microtitration contenant 96 trous de 1 cm3 par plaque (Titer Plate®, Beckman), la réaction est stoppée par addition de 0,4 cm3 de SDS à 0,1 % dans le méthanol à 0°C. Le mélange est ensuite additionné de 0,4 cm3 d'acide trichloroacétique (TCA) à 30 % dans le méthanol. Les plaques sont laissées pendant 1 heure dans la glace. Le contenu précipité est alors retenu sur membrane en fibre de verre Filtermat®, Pharmacia) avec l'unité de filtration (Combi Cell Harvester®, Skatron) et rincé avec de l'acide trichloroacétique à 6 % dans l'eau distillée. Les membranes sont séchées au four à micro-ondes puis imprégnées de scintillant par fusion sous air chaud de Meltilex® (Pharmacia) et enfin comptées en cpm dans un compteur β-Plate® (LKB). Chaque essai est répété 3 fois.
L'unité d'activité est définie par 1 picomole de (^3H) FPP transférée sur p21 H-Ras en 20 minutes.
Les pourcentages d'inhibition sont obtenus par comparaison des essais avec et sans inhibiteur après déduction des blancs, les IC50 étant mesurées à partir des inhibitions obtenues avec 9 concentrations différentes en utilisant les logiciels Enzfitter® ou Grafit®.

The test system of test [2] is farnésylation de la protéine Ras. As to the kind of experiment: Inhibition of Ras protein farnesylation in THAC cells (Triton X114 extraction, Western blot). The class given is cell-based. To be noted: 24 h culture, read-out: % d'inhibition sur cellules (THAC). An excerpt: La lignée cellulaire est la lignée THAC (cellules CCL 39 transfectées par Ha-Ras activé) selon K. Seuwen et coll., EMBO J., 7(1) 161-168 (1988). Les cellules sont ensemencées dans des boîtes de Petri de 6 cm de diamètre contenant un milieu DMEM, sérum de veau foetal 5 %, G418 1 %.
Après 24 heures de culture, le milieu de culture est changé (avec ou sans sérum) et le produit à étudier est ajouté en solution dans le diméthylformamide (DMF), en présence ou en absence de DTT (concentrations finales de 0,5 % en DMF et 0,1mM en DTT). Après 24 heures de culture à 37°C, les cellules sont lysées dans 1 cm3 de tampon de lyse (Tris, HCI 20mM, Triton X114 1 %, MgCl2 5 mM, DIT 7 mM, NaCl 150 mM, pH = 7,4). Les lysats sont clarifiés par centrifugation à 4.000 tours/minute pendant 10 minutes. L'extraction par le Triton X114 permet de séparer la protéine Ras farnésylée de la protéine Ras non farnésylée [C. BORDIER, J. Biol. Chem., 256 (4), 1604-1607 (1981)]. La protéine Ras farnésylée qui est plus hydrophobe se trouve dans la phase détergente tandis que la protéine Ras non farnésylée est dans la phase aqueuse. Les échantillons sont dénaturés par chauffage à 95°C dans du tampon de dénaturation pour électrophorèse et déposées sur un gel de polyacrylamide à 14 %. Lorsque le colorant atteint le bas du gel, les protéines du gel sont transférées sur une membrane PVDF. […]
(In western blotting, separated proteins are transferred to a membrane and probed.)

Where two headings read alike, the source gives them in different places.

In general, IC50 refers to the concentration at which inhibition is half-maximal. `CSCC[C@H](NC(=O)c1cccc2c(NC(=O)[C@@H](N)CS)cccc12)C(=O)O` [Exemple 1, N-[5-(2(R)-amino-3-mercapto-propionylamino)-naphthyl-1-carbonyl}-L-méthionine]: the IC50 in test [1] (unit inferred) worked out at 48 nM.
`CSCC[C@H](NC(=O)c1cccc2c(NC[C@@H](N)CS)cccc12)C(=O)O` [Exemple 3, N-[5-(2(R)-amino-3-mercapto-propylamino)-naphthyl-1-carbonyl]-L-méthionine]: in test [1] (unit inferred), the 50% inhibitory concentration (IC50) came out at 5.6 nM.
As to `CCCC[C@H](NC(=O)c1cccc2c(NC[C@@H](N)CS)cccc12)C(=O)O` [Exemple 5, N-[5-(2(R)-amino-3-mercapto-propylamino)-naphthyl-1 carbonyl]-L-norleucine], in test [1] (unit inferred), the IC50 is 69 nM.
Same read-out and setting: the value for `CSCC[C@H](NC(=O)c1cccc2c(NC[C@@H](N)CS)cccc12)C(=O)OCc1ccccc1` [Exemple 8, ester benzyliquede la N-[5-(2(R)-amino-3-mercapto-propylamino)-naphtyl-1-carbonyl]-L-méthionine] was 100 nM; that for `COCCOCCOC(=O)[C@H](CCSC)NC(=O)c1cccc2c(NC[C@@H](N)CS)cccc12` [Exemple 9, ester 2-(2-méthoxyéthoxy) éthyliquede la N-[5-(2(R)-amino-3-mercapto-propylamino)-naphtyl-1-carbonyl]-L-méthionine] was 70 nM; that for `CSCC[C@H](NC(=O)c1cccc2c(NC[C@@H](N)CS)cccc12)C(=O)OCCS(=O)(=O)c1ccccc1` [Exemple 10] was 21 nM.
Broadly, the inhibition is how much of the control response was suppressed. For `CSCC[C@H](NC(=O)c1cccc2cc(NC[C@@H](N)CS)ccc12)C(=O)O` [Exemple 19, N-[6-(2(R)-amino-3-mercapto-propylamino)-naphtyl-1-carbonyl]-L-méthionine], the concentration for half-maximal inhibition (IC50) in test [1] (unit inferred) is 1.8 nM. In addition, the inhibition at 50 µM in test [2] (à 50 µM) worked out at 31%.
As for `COC(=O)[C@H](CCSC)NC(=O)c1cccc2cc(NC[C@@H](N)CS)ccc12` [Exemple 20, ester méthyliquede la N-[6-(2(R)-amino-3-mercapto-propylamino)-naphtyl-1-carbonyl]-L-méthionine], in test [1] (unit inferred), the IC50 came out at 80 nM. For the same compound, the inhibition at 10 µM in test [2] (à 10 µM) is 50%.
With `CS(=O)(=O)CC[C@H](NC(=O)c1cccc2cc(NC[C@@H](N)CS)ccc12)C(=O)O` [Exemple 21, acide 2(S)-[6-(2(R)-amino-3-mercapto-propylamino)-1-naphtoylamino]-4-méthylsulfonyl-butanoïque], the IC50 in test [1] was found to be 4 nM.

The values are drawn from EP0764149B1, “NOVEL FARNESYL TRANSFERASE INHIBITORS, THEIR PREPARATION AND PHARMACEUTICAL COMPOSITIONS CONTAINING SAME” (RHONE-POULENC RORER S.A., priority 1994, dated 1995).
